pKi: −log10 of the molar value.
Legend:
[1] = Metabolic stability in baboon brain assessed as compound remaining at 4.43 mCi after 90 mins; assay type: ADME, tissue-based; details: papio anubis, read-out: Stability
[2] = Metabolic stability in baboon brain assessed as compound remaining at 4.43 mCi after 30 mins; assay type: ADME, tissue-based; details: papio anubis, read-out: Stability
[3] = biological target: T1, Alpha-2C adrenergic receptor (Homo sapiens, UniProt P18825); test: Displacement of [3H]rauwolscine from adrenergic Alpha-2C receptor
T1 sequence (P18825 whole entry): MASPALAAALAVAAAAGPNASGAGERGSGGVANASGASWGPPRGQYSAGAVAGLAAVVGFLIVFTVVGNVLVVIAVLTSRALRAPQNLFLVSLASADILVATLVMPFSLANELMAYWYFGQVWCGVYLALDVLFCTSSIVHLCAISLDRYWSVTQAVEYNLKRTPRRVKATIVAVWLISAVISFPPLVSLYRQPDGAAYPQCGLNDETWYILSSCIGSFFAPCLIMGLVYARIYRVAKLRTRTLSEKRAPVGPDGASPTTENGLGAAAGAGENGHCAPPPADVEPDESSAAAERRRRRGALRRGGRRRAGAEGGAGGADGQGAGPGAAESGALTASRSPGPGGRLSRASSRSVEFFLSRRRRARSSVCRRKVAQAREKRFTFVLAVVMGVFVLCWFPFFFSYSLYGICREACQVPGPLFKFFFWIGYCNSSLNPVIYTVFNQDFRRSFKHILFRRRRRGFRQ

[4] = biological target: Sodium-dependent serotonin transporter (Homo sapiens, UniProt P31645); test: Displacement of [3H]paroxetine from 5HTT receptor
Sodium-dependent serotonin transporter, sequence (P31645 whole entry): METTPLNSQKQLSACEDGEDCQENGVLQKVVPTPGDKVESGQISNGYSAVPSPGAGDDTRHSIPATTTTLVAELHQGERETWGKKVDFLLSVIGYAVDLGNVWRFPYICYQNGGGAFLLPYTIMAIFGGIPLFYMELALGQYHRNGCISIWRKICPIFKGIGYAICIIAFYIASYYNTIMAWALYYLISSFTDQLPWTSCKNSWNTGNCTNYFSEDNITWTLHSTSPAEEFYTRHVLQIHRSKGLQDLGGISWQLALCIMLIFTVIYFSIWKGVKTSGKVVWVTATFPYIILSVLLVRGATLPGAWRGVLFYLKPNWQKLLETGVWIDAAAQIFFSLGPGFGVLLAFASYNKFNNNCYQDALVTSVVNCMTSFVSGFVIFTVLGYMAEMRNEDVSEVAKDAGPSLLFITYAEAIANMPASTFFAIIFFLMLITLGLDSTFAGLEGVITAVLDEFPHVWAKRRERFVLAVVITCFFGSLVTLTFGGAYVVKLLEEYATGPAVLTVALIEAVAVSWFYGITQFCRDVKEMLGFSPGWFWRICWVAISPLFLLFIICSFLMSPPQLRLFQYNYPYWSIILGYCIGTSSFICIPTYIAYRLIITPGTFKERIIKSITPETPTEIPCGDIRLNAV

Structure (SMILES) | remaining at 1.5 h [1] | remaining at 0.5 h [2] | pKi [3] | pKi [4]
[11CH3]N1CC2C(=NO[C@H]2CN2CCN(C/C=C/c3ccccc3)CC2)c2ccccc21 (some centres undefined) | 21% | 35% | – | –
CN1CC2C(=NO[C@H]2CN2CCN(C/C=C/c3ccccc3)CC2)c2ccccc21 (some centres undefined) | – | – | 8.35 | 7.80

From ChEMBL document CHEMBL1158639, “Synthesis and in vivo evaluation of [11C]MPTQ: a potential PET tracer for alpha2A-adrenergic receptors” (Bioorg Med Chem Lett, 2010)
